As a reminder, the inhibition is the percentage by which the read-out fell short of the control. A higher inhibition goes with a response far below the control.

The source of these data is patent publication US20080181866A1, “Amido Anti-viral Compounds” (Genelabs Technologies, Inc., priority 2006, published 2008).

The subject of this assay is HCV replication. In words: HCV replicon assay (luciferase) in ET (Huh-lucubineo-ET) cell line. Type of assay: cell-based. The settings on record: Hepatitis C virus, tested at 5 μM; ET replicon cells; luciferase activity measured 48-72 hours later; relative to no compound control. Put shortly:
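Huh-lucubineo-ET cells stably carry a subgenomic replicon with a firefly luciferase–ubiquitin–neo fusion and adaptive NS3-5B mutations; they were seeded 24 h before compound addition (0.1 nM–50 μM, 0.5% DMSO). Luciferase was read 48–72 h later as % inhibition versus no-compound control, with parallel WST-1 cytotoxicity. EC50 and TC50 came from 10-point 2-fold dilutions fitted to a Hill equation.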
In general terms: In antiviral work, replicon cells carry a viral genome segment that copies itself.
As to `O=C(NC1CC1)c1ccc(-c2csc(NC(=O)[C@@H]3CSC(C4CCOCC4)N3C(=O)OCc3ccccc3)n2)cc1` (mixture of isomers) [Compound 7025, (R)-4-[4-(4-Cyclopropylcarbamoyl-phenyl)-thiazol-2-ylcarbamoyl]-2-(tetrahydro-pyran-4-yl)-thiazolidine-3-carboxylic acid benzyl ester], the inhibition at 5 µM came to 100%.

The compound `O=C(NC1CC1)c1ccc(-c2csc(NC(=O)[C@@H]3CSC(c4ccc(CN5CCOCC5)cc4)N3C(=O)OCc3ccccc3)n2)cc1` (stereo partly shown) [Compound 7087, 4-[4-(4-Cyclopropylcarbamoyl-phenyl)-thiazol-2-ylcarbamoyl]-2-(4-morpholin-4-ylmethyl-phenyl)-thiazolidine-3-carboxylic acid benzyl ester] yielded an inhibition at 5 µM of 99.6%.

On to `O=C(NC1CC1)c1ccc(-c2csc(NC(=O)[C@@H]3CSC(CCCCC(=O)N4CCOCC4)N3C(=O)OCc3ccccc3)n2)cc1` (stereo partly shown) [Compound 7071, 4-[4-(4-Cyclopropylcarbamoyl-phenyl)-thiazol-2-ylcarbamoyl]-2-(5-morpholin-4-yl-5-oxo-pentyl)-thiazolidine-3-carboxylic acid benzyl ester], for which the inhibition at 5 µM worked out at 100%.

Regarding `O=C(Cc1cccc(NC(=O)[C@@H]2CSC(c3ccncc3)N2C(=O)OCc2ccccc2)c1)Nc1ccccc1` (stereo partly shown) [Compound 7072, 4-(3-Phenylcarbamoylmethyl-phenylcarbamoyl)-2-pyridin-4-yl-thiazolidine-3-carboxylic acid benzyl ester], the inhibition at 5 µM was 80.8%.

As to `COC(=O)c1cccc(C2SC[C@@H](C(=O)Nc3nc(-c4ccc(C(=O)NC5CC5)cc4)cs3)N2C(=O)OCc2ccccc2)c1` (mixture of isomers) [Compound 7057, (R)-4-[4-(4-Cyclopropylcarbamoyl-phenyl)-thiazol-2-ylcarbamoyl]-2-(3-methoxycarbonyl-phenyl)-thiazolidine-3-carboxylic acid benzyl ester], the inhibition at 5 µM is 100%.

With `O=C(NC1CC1)c1ccc(-c2csc(NC(=O)[C@@H]3CSC(c4cncs4)N3C(=O)OCc3ccccc3)n2)cc1` (mixture of isomers) [Compound 7015, (R)-4-[4-(4-Cyclopropylcarbamoyl-phenyl)-thiazol-2-ylcarbamoyl]-4,5-dihydro-[2,5′]bithiazolyl-3-carboxylic acid benzyl ester], testing at 5 µM gave an inhibition of 100%.

Consider `CC(C)(C)OC(=O)N1c2ccccc2C[C@H]1C(=O)Nc1nc(-c2ccc(C(=O)NC3CC3)cc2)cs1` [Compound 7020, (S)-2-[4-(4-Cyclopropylcarbamoyl-phenyl)-thiazol-2-ylcarbamoyl]-2,3-dihydro-indole-1-carboxylic acid tert-butyl ester], for which the inhibition at 5 µM turned out to be 99.5%.

`O=C(Nc1ccccc1)c1cccc(NC(=O)[C@@H]2CSC(c3ccncc3)N2C(=O)OCc2ccccc2)c1` (stereo in doubt) [Compound 7112, 4-(3-Phenylcarbamoyl-phenylcarbamoyl)-2-pyridin-4-yl-thizolidine-3-carboxylic acid benzyl ester] showed an inhibition at 5 µM of 64.2%.

`O=C(Nc1ccccc1)c1ccc(NC(=O)[C@@H]2CSC(c3ccncc3)N2C(=O)OCc2ccccc2)cc1` (stereo partly shown) [Compound 7076, 4-(4-Phenylcarbamoyl-phenylcarbamoyl)-2-pyridin-4-yl-thiazolidine-3-carboxylic acid benzyl ester] had an inhibition at 5 µM of 3.9%.

The compound `O=C(NC1CC1)c1ccc(-c2csc(NC(=O)[C@@H]3CC[C@H](c4ccncc4)N3C(=O)OCc3ccccc3)n2)cc1` [Compound 7003, (2S,5R)-2-[4-(4-Cyclopropylcarbamoyl-phenyl)-thiazol-2-ylcarbamoyl]-5-pyridin-4-yl-pyrrolidine-1-carboxylic acid benzyl ester] yielded an inhibition at 5 µM of 100%.

For the compound `N#Cc1cccc(C2SC[C@@H](C(=O)Nc3nc(-c4ccc(C(=O)NC5CC5)cc4)cs3)N2C(=O)OCc2ccccc2)c1` (mixture of isomers) [Compound 7033, (R)-2-(3-Cyano-phenyl)-4-[4-(4-cyclopropylcarbamoyl-phenyl)-thiazol-2-ylcarbamoyl]-thiazolidine-3-carboxylic acid benzyl ester], the inhibition at 5 µM came out at 100%.

`CN(C)C(=O)CCCCC1SC[C@@H](C(=O)Nc2nc(-c3ccc(C(=O)NC4CC4)cc3)cs2)N1C(=O)OCc1ccccc1` (mixture of isomers) [Compound 7125, 4-[4-(4-Cyclopropylcarbamoyl-phenyl)-thiazol-2-ylcarbamoyl]-2-(4-dimethylcarbamoyl-butyl)-thiazolidine-3-carboxylic acid benzyl ester] yielded an inhibition at 5 µM of 100%.

On to `O=C(NC1CC1)c1ccc(-c2csc(NC(=O)[C@@H]3CSC(c4ccc(F)cc4)N3C(=O)OCc3ccccc3)n2)cc1` (mixture of isomers) [Compound 7013, (R)-4-[4-(4-Cyclopropylcarbamoyl-phenyl)-thiazol-2-ylcarbamoyl]-2-(4-fluoro-phenyl)-thiazolidine-3-carboxylic acid benzyl ester], for which the inhibition at 5 µM is 99.7%.

Consider `COCCNC(=O)c1ccc(NC(=O)[C@@H]2CSC(c3ccncc3)N2C(=O)OCc2ccccc2)cc1` (stereo in doubt) [Compound 7135, 4-[4-(2-Methoxy-ethylcarbamoyl)-phenylcarbamoyl]-2-pyridin-4-yl-thiazolidine-3-carboxylic acid benzyl ester], for which the inhibition at 5 µM is 22.1%.

Compound `NC(=O)c1cccc(NC(=O)[C@@H]2CSC(c3ccncc3)N2C(=O)OCc2ccccc2)c1` (stereo partly shown) [Compound 7127, 4-(3-carbamoyl-phenylcarbamoyl)-2-pyridin-4-yl-thiazolidine-3-carboxylic acid benzyl ester] came in with an inhibition at 5 µM of 25.7%.

Turning to `O=C(NC1CC1)c1ccc(-c2csc(NC(=O)[C@@H]3CSC(C4CCCCC4)N3C(=O)OCc3ccccc3)n2)cc1` (mixture of isomers) [Compound 7035, (R)-2-Cyclohexyl-4-[4-(4-cyclopropylcarbamoyl-phenyl)-thiazol-2-ylcarbamoyl]-thiazolidine-3-carboxylic acid benzyl ester], the inhibition at 5 µM was found to be 98.9%.

With `O=C(NC1CC1)c1ccc(-c2csc(NC(=O)[C@@H]3CSC(c4ccnc5ccccc45)N3C(=O)OCc3ccccc3)n2)cc1` (mixture of isomers) [Compound 7007, (R)-4-[4-(4-Cyclopropylcarbamoyl-phenyl)-thiazol-2-ylcarbamoyl]-2-quinolin-4-yl-thiazolidine-3-carboxylic acid benzyl ester], the inhibition at 5 µM was 100%.

`O=C(NC1CC1)c1ccc(-c2csc(NC(=O)[C@@H]3CS[C@H](c4cccnc4)N3C(=O)OCc3ccccc3)n2)cc1` [Compound 7028, (2R,4R)-4-[4-(4-Cyclopropylcarbamoyl-phenyl)-thiazol-2-ylcarbamoyl]-2-pyridin-3-yl-thiazolidine-3-carboxylic acid benzyl ester] came in with an inhibition at 5 µM of 100%.

For the compound `O=C(NC1CC1)c1ccc(-c2csc(NC(=O)[C@@H]3CS[C@@H](c4cccnc4)N3C(=O)OCc3ccccc3)n2)cc1` [Compound 7009, (2S,4R)-4-[4-(4-Cyclopropylcarbamoyl-phenyl)-thiazol-2-ylcarbamoyl]-2-pyridin-3-yl-thiazolidine-3-carboxylic acid benzyl ester], the inhibition at 5 µM was 99.9%.
